Assay [1] has as its system Escherichia coli. In words: Broth dilution MIC determination. Format: cell-based. To be noted: 37 °C, 24 h, read-out: Minimum Inhibitory Concentrations. As to the method:
(§1) Antibacterial potential of isolated compound was investigated against both Gram-positive and Gram-negative bacterial strains; Escherichia coli, Bacillus cereus, Salmonella typhi, Klebsiella pneumonia, Pseudomonas aeruginosa and Proteus mirabilis. Bacterial strains were provided by the Department of Pharmacy, University of Malakand, Khyber Pakhtunkhwa, Pakistan, and were kept at 4 °C in agar slants in freeze-dried condition until further use.
(§2) Both Gram-positive and Gram-negative bacterial strains Escherichia coli, Bacillus cereus, Salmonella typhi, Klebsiella pneumonia, Pseudomonas aeruginosa and Proteus mirabilis organism viable count per mL in the stock suspension was determined using surface viable counting technique. About 10^8–10^9 colony-forming units (CFU) per mL were used as inoculum in subsequent experiments. A fresh stock suspension was used each time.
(§3) Minimum inhibitory concentrations (MICs) of morin, phloroglucinol, and 1-hexyl benzene were determined using broth dilution method, following the Clinical and Laboratory Standards Institute (CLSI) guidelines. Stock solutions of morin, phloroglucinol, and 1-hexyl benzene were prepared in dimethylsulphoxide (DMSO). The serial dilutions from the stock solution were made ranging from 500 to 3.90 μg/mL using Mueller–Hinton broth. Sterile centrifuge tubes were arranged in sets of rows for each bacterial inoculum to cover the different concentration of isolated compounds in triplicate. The standard bacterial stock suspension 10^8–10^9 CFU/mL, in 100 μL were inoculated into each tube. A sterility control tube and a growth control tube were also incubated (for each strain). The tubes were incubated at 37 °C for 24 h. After incubation, 40 μL of a 0.4 mg/mL solution of para iodonitrotetrazolium (INT) chloride was added to each tube as an indicator of microbial growth. […] The evaluation for the inhibition of microbial growth was based on the color change of INT to pink, while no color change indicates the absence of growth. The MIC is the lowest concentration of the compounds at which there is no visible growth in the tubes. The concentration that inhibited bacterial growth completely (the first clear tube) was taken as the MIC value. Experiments were performed in triplicate and mean values are presented.
(§4) In order to, determine the sensitivity of the bacterial strains, positive control experiments were conducted, taking ampicillin at a starting concentration of 0.10 mg/mL in sterile water while the final concentrations for these experiments ranged from 25.00 to 0.19 μg/mL. A negative control experiment was conducted using only DMSO.
(In general: Dilution methods test growth across graded concentrations, often in twofold steps.)

Assay [2] relates to Klebsiella pneumonia. In words: Broth dilution MIC determination. The class given is cell-based. Conditions: Klebsiella pneumoniae, 37 °C, 24 h, read-out: Minimum Inhibitory Concentrations. The procedure:
as §1, §2, §3, §4

Assay [3] concerns Bacillus cereus. Nature of the assay: Broth dilution MIC determination. Format: cell-based. To be noted: 37 °C, 24 h, read-out: Minimum Inhibitory Concentrations. As to the method:
as §1, §2, §3, §4

For assay [4], the system named is Proteus mirabilis. Nature of the assay: Broth dilution MIC determination. To be noted: 37 °C, 24 h, read-out: Minimum Inhibitory Concentrations. Format: cell-based. As to the method: as §1, §2, §3, §4
Assay [5] deals with Pseudomonas aeruginosa. Nature of the assay: Broth dilution MIC determination. Format: cell-based. Conditions: 37 °C, 24 h, read-out: Minimum Inhibitory Concentrations. As to the method: as §1, §2, §3, §4
In assay [6] the test system is Staphylococcus aureus. Nature of the assay: Broth dilution MIC determination. The class given is cell-based. To be noted: 37 °C, 24 h, read-out: Minimum Inhibitory Concentrations. As to the method:
as §3, with “Stock” for “Minimum inhibitory concentrations (MICs) of morin, phloroglucinol, and 1-hexyl benzene were determined using broth dilution method, following the Clinical and Laboratory Standards Institute (CLSI) guidelines. Stock”, “The serial dilutions from the stock solution were made ranging from 500 to 3.90 μg/mL using Mueller–Hinton broth.” left out, “The standard bacterial stock suspension 10^8–10^9 CFU/mL, in 100 μL were inoculated into each tube.” left out, “presented. […] A negative control experiment was conducted using only DMSO.” for “presented.”

Assay [7] deals with Salmonella typhi. Nature of the assay: Broth dilution MIC determination. Conditions: Salmonella enterica, 24 h, read-out: Minimum Inhibitory Concentrations. The class given is cell-based.
Assay [8] is described as follows: ABTS free radical scavenging assay. Format: biochemical. As to the method: ABTS (2,2′-azinobis-3-ethylbenzothiazoline-6-sulfonic acid) free radicals inhibition potential were determined according to the reported assay. ABTS solution was prepared in methanol (100 mL). In total, 300 µL of compound (morin, phloroglucinol, and 1-hexyl benzene) was mixed thoroughly with 3.0 mL ABTS solution and incubated for six minutes. Finally, the absorbance was measured through UV spectrophotometer using ascorbic acid as positive control. Percent ABTS free radicals scavenging potential was calculated using the equation No. 1.
(§5) All the in vitro and in vivo experiments were analyzed in three replicates and determined as mean ± SEM. Student’s t-test and one way ANOVA followed by Dunnett’s post hoc multiple comparison test was used. p ≤ 0.05 were considered as significant. Linear regression analysis was used to calculate the IC50 value for % DPPH, ABTS, α-amylase, and α-glucosidase inhibition against the different concentrations of the test samples by means of Excel program 2007.

Assay [9] can be described thus: DPPH free radical scavenging assay. Format: biochemical. To be noted: 125 µg/mL. On the technique in general: Loss of DPPH colour is used to gauge radical scavenging.
Assay [10] can be described thus: DPPH free radical scavenging assay. The class given is biochemical. The procedure:
According to the Brand-Williams assay DPPH (2, 2-diphenyl-1-picrylhydrazyl) free radical scavenging activity of morin was determined. DPPH and compounds stock solutions (1 mg/mL) were prepared in 100 mL methanol with serial dilutions of […], 62.5, 250, 500, and 1000 µg/mL. After that, 0.1 mL morin was mixed with 3.0 mL DPPH solution and incubated at 23 °C for 30 min. Standard ascorbic acid solution was also prepared in the same way using as a positive control. Finally, absorbance was measured at 517 nm via UV spectrophotometer. Results were taken in a set of three experiments and represented as mean ± SEM. Percent free radicals scavenging potential was calculated according to the following Equation (1): (1) % Free radicals Scavenging potential = Blank sample absorbance−sample absorbance/Blank sample absorbance×100
as §5

[11] abbreviates: 1000 µg/mL, listed as ascorbic acid.
The mark [12] stands for this setting: linear regression of % scavenging vs concentration.

Values after ≈ are worked out from the molar mass of the structure shown.

For the compound `CC1(C)S[C@@H]2[C@H](NC(=O)[C@H](N)c3ccccc3)C(=O)N2[C@H]1C(=O)O` [Ampicillin, ampicillin, reference compound], the MIC in [1] stood at 1 ± 0.1 µg/mL (≈ 2.86 µM); in [2], 1.9 ± 1.2 µg/mL (≈ 5.44 µM); in assay [3], 1.6 µg/mL (≈ 4.58 µM); in assay [4] it was 1.9 ± 1.1 µg/mL (≈ 5.44 µM); in [5], 1.2 ± 0.5 µg/mL (≈ 3.43 µM); in assay [6], 1.4 ± 0.5 µg/mL (≈ 4.01 µM). Besides, the MIC in [7] was 1.8 ± 0.1 µg/mL (≈ 5.15 µM).
In the case of `O=C1O[C@H]([C@@H](O)CO)C(O)=C1O` [Ascorbic acid, ascorbic acid, reference compound], the “% ABTS Scavenging Mean ± SEM” value in assay [8] (31.05 µg/mL) turned out to be 56 ± 1.1%; in assay [8] (62.5 µg/mL), 64 ± 1.0%; in assay [8] (125 µg/mL) it was 70 ± 0.5%; in assay [8] (250 µg/mL), 78 ± 0.5%; in [8] (500 µg/mL), 84 ± 1.1%; in assay [8] (1000 µg/mL), 90 ± 0.5%. The “% ABTS Scavenging Mean ± SEM” value in assay [8] (setting [11]) is 85 ± 0.5%. The “ABTS IC50” value in assay [8] (setting [12]) amounted to 32 µg/mL. Moreover, the “% DPPH Scavenging Mean ± SEM” value in [9] is recorded as 77 ± 0.4%; in assay [10] (31.05 µg/mL), 69 ± 0.4%; in assay [10] (62.5 µg/mL), 73 ± 0.5%; in assay [10] (250 µg/mL) it was 80 ± 0.4%; in [10] (500 µg/mL), 86 ± 1.0%; in assay [10] (1000 µg/mL), 91 ± 0.5%. Moreover, in assay [10] (setting [11]), the “% DPPH Scavenging Mean ± SEM” value turned out to be 86 ± 0.5%. For the same compound, in assay [10] (setting [12]), the “DPPH IC50” value was found to be 29 µg/mL.

The values are drawn from paper PMC8348310, “Antioxidants Isolated from Elaeagnus umbellata (Thunb.) Protect against Bacterial Infections and Diabetes in Streptozotocin-Induced Diabetic Rat Model” (Molecules, 2021).
